For series [1], the system named is HepG2 cells. Briefly: Toxicity test of compound to hepatocytes: number of viable cells (Cell Titer-Glo). In kind it is cell-based, human. The note with it: DAG 0.015%, 1 day, no addition = 1. The method, then:
(§1) This aqueous solution was sterilized at 121°C for 20 min in an autoclave. On the other hand, HepG2 cells was mixed with DMEM medium (manufactured by WAKO) at 100000 cells/mL, and the cell suspension was dispensed to the wells of a 96-well flat bottom ultra low adhesion surface microplate (manufactured by Corning Incorporated, #3474) at 100 µL/well. […] Successively, this plate was cultured by being stood still in a CO2 incubator (37°C, 5% CO2) for 1 day.
The culture medium (50 µL) after culturing for 1 day was dispensed to a 96-well titer plate (manufactured by Corning Incorporated), to this culture medium was added a Cell Titer-Glo (registered trade mark) reagent (manufactured by Promega, 50 µL), and the mixture was incubated at room temperature for 10 min. The luminescence intensity was measured by a multiplate reader (manufactured by Molecular Devices, FlexStation3) to measure the number of viable cells.

Series [2] concerns HepG2 cells. Briefly: Toxicity test of compound to hepatocytes: LDH activity measurement. Format: cell-based, human. As to conditions: DAG 0.015%, 1 day. The procedure:
as §1
To the culture medium (100 µL) after culturing for 1 day was added DMEM medium (manufactured by WAKO, 100 µL), and the plate was centrifuged by 4316.4 m·s^-2 (440G) for 15 min. The supernatant (100 µL) was dispensed to a 96-well titer plate (manufactured by Corning Incorporated), a reaction mixture (100 µL) in a cytotoxicity detection kit (manufactured by Roche Applied Science) was added, and the mixture was stood under shading at room temperature for 30 min. Successively, according to the protocol of the above-mentioned kit, the absorbance at 490 nm (reference; 600 nm) was measured by an absorbance spectrometer (manufactured by Molecular Devices, SPECTRA MAX 190), whereby the rate of the disordered cell, that is, cell disorder rate (%), was measured.

In the case of `Cc1c(C)c2c(c(C)c1O)CCC(C)(COc1ccc(CC3SC(=O)NC3=O)cc1)O2` (centres unmarked) [Troglitazone], the relative cell number is on record as 0.68 in the series with HepG2 cells [1] (Troglitazone 20 µM), 0.50 in the series on HepG2 cells [1] (Troglitazone 40 µM), 0.48 in the series with HepG2 cells [1] (Troglitazone 60 µM) and 0.39 with HepG2 cells [1] (Troglitazone 100 µM). Besides, the cell disorder rate in the series with HepG2 cells [2] (Troglitazone 20 µM) is recorded as 2.68%; in the series with HepG2 cells [2] (Troglitazone 40 µM), 14.7%; in the series with HepG2 cells [2] (Troglitazone 60 µM), 22.5%; in the series on HepG2 cells [2] (Troglitazone 100 µM), 60.7%.

For the origin of these results see patent EP3409761B1, “CULTURE MEDIUM COMPOSITION, AND METHOD FOR CULTURING CELL OR TISSUE USING SAID COMPOSITION” (Nissan Chemical Corporation, priority 2012, dated 2014).
